# In patent US6498246B1, “Glycosaminoglycan derivatives and processes for preparing same” (Seikagaku Corporation, priority 1998, dated 2002):
# Like-named read-outs stand apart in the source and are kept apart here.
# Columns and labels:
# mice = mice (males and females), cited from earlier work
# blood plasma [1] = experiment: Measurement of TT (thrombin time); assay type: biochemical, rat; settings: for TT activity: concentration of standard heparin giving TT 100 seconds as percentage of that of the substance, standard heparin = 100; for TT activity/APTT activity: ratio of TT activity to APTT activity
# Method: For the measurement of TT, 100 μl of the blood plasma and 100 μl of each sample having varied concentration were put into a measuring cup and incubated at 37° C. for 1 minute. Thereafter, 100 μl of thrombin (10 U/ml) incubated in advance at 37° C. was added thereto, and the period of time from this point until generation of coagulation was measured using the blood coagulation automatic measuring apparatus. In Table 2, the final concentration of each of the inventive substance and standard heparin in the medium, by which the TT value becomes 100 seconds, was obtained to calculate the concentration of the standard heparin as percentage based on the concentration of the inventive substance, and this value (%) was used as the TT activity of the inventive substance.
# [2] = Anticoagulation activity of the standard heparin; settings: property of the standard heparin preparation
# [3] = tested on: primary culture cells of Wistar rat cerebral cortex cells; experiment: Measurement of neurite outgrowth promoting activity; assay type: cell-based; design: neurite outgrowth promoting activity (in words, FIG. 3): dose or concentration left out as unconfirmed; settings: for Neurite outgrowth promoting activity: 10 μg/ml, ratio of cerebral cortex cell masses showing neurite outgrowth after 2 days of culturing
# Method: A fetus was aseptically excised from a Wistar rat in the 17th day of pregnancy (purchased from Japan SLC). The brain was excised from the fetus, and the cerebral cortex was obtained by removing the cerebellum, mid-brain, inter-brain and meninges in an un-sulfated DMEM medium (prepared by dissolving 500 mg of anhydrous CaCl2, 0.25 mg of Fe(NO)3/9H2O, 1,000 mg of KCl, 193.3 mg of MgCl2, 9,250 mg of NaHCO3, 312.5 mg of NaH2PO4/H2O, 37.5 mg of Phenol Red, 275 mg of sodium pyruvate, 100 ml of MEM amino acid (No. 11130-051, manufactured by Gibco), 75 mg of L-glycine, 1,460 mg of L-glutamine, 105 mg of L-serine, 100 ml of MEM vitamin solution (No. 11120-052, manufactured by Gibco), 15,150 mg of NaCl and 11,250 mg of D-glucose in 2.5 L of sterilized distilled water and adjusting the solution to pH 7.2).
# Cerebral cortexes obtained from 10 animals were finely sliced 100 times in both lengthwise and crosswise with a safety razor on a 60 mm dish, and the cerebral cortex slices were mixed twice with 10 ml of phosphate-buffered saline (PBS) and dispensed into a 50 ml capacity Falcon tube to which was subsequently added 11 ml of the un-sulfated DMEM medium. While uniformly suspending by gentle shaking, this was dispensed in 0.5 ml portions into wells of a 24 well plate (bottom area, 2 cm^2) which had been coated with 0.1% polyethylene imine. After 2 hours of the commencement of culturing, 100 μl of each sample was taken out, and 50 μl of PBS containing each substance to be tested having 10 time concentration of its final concentration and 50 μl of 400 μM chloric acid/un-sulfated DMEM medium were added. After 2 days of culturing at 37° C. under 5% CO2, 500 μl of 1% glutaraldehyde/PBS was gently over-layered to carry out 20 minutes of fixation at room temperature. After removing the supernatant by suction, 0.5 ml of PBS was slowly over-layered and then immediately removed by suction. A 20% Giemsa solution/potassium phosphate buffer was over-layered and allowed to stand for 2 hours at room temperature. After removing the supernatant by suction, 0.5 ml of PBS was added.
# blood plasma [4] = experiment: Measurement of APTT (activated partial thromboplastin time); assay type: biochemical, rat; settings: for APTT activity: concentration of standard heparin giving APTT 100 seconds as percentage of that of the substance, standard heparin = 100; for APTT (3 μg/ml): final concentration 3 μg/ml
# Method: For the measurement of APTT, blood was collected from rat lower aorta by 3.2% citric acid {fraction (1/10 )} volume and centrifuged at 1,000×g for 10 minutes, and 100 μl of the thus obtained blood plasma and 100 μl of each sample having varied concentration were put into a measuring cup and incubated at 37° C. for 1 minute. Thereafter, 100 μl of Actin (trade name, Yoshitomi Pharmaceutical) which had been incubated in advance at 37° C. was added thereto, and the incubation was continued for 2 minutes. Next, 100 μl of 0.02 M CaCl2 solution which had been incubated in advance at 37° C. was added thereto, and the period of time from this point until generation of coagulation was measured using a blood coagulation automatic measuring apparatus (KC-10A: manufactured by Amelung). Also, in Table 2, the final concentration of each of the inventive substance and standard heparin in the medium, by which the APTT value becomes 100 seconds, was obtained to calculate the concentration of the standard heparin as percentage based on the concentration of the inventive substance, and this value (%) was used as the APTT activity of the inventive substance.
# NSC-34 cells = experiment: Measurement of neural cell death inhibition activity; assay type: cell-based, mouse
# Method: That is, culturing was carried out by adding 0.09 ml of serum-free DMEM medium containing 1×10^5 of NSC-34 cells (received from Dr. Cashman (Toronto University): a mouse motor neuron-derived cultured cell strain) to a 96 well multi-plate which had been treated with 0.1% polyethylene imine in advance. Two hours after culturing, 10 μl of 100, 1,000 or 10,000 μg/ml aqueous solution of the inventive substance was added to respective wells (the final concentration in the medium is 10, 100 or 1,000 μg/ml). Thereafter, culturing was continued for 46 hours, and the number of survived cells was measured by the MTT process using a hemocytometer. By comparing with the number of survived cells after 2 hours of the culturing, the number of dead cells after 48 hours of the culturing of a control in which the inventive substance was not added was defined as 100%, and the ratio of difference from the number of dead cells when the inventive substance was added (the number of cells rescued from the cell death) was calculated as percentage (FIG. 6).
# [5] = tested on: sialidase (homogenate of NSC-34 cells); experiment: Measurement of sialidase activity with [3H]GM2 substrate; assay type: biochemical, mouse
# Method: Into a 15 ml capacity glass tube, 1 mg of GM2 ganglioside (manufactured by IATRON) was put, and dissolved by adding 0.8 ml of distilled water, followed by sonication. To the resulting solution, 0.1 ml of PdCl2 solution (a supernatant fraction obtained by adding PdCl2 to distilled water to a concentration of 25 mg/ml, followed by sonication for 30 minutes, and then centrifuging the mixture at 2,000×g) was added, followed by stirring. […]
# After the incubation, this was mixed with 5 ml of distilled water, applied to Sep-pak C18 cartridge column (manufactured by Waters) and eluted with methanol (3 ml) and then with chloroform : methanol (1:1 (v/v), 3 ml). The eluate was applied to DEAE-Sephadex A-25 column (manufactured by Pharmacia: 1 ml resin, swelled with methanol) and eluted with chloroform:methanol (1:1 (v/v), 3 ml), and then the eluate was dried to measure and compare radioactivity by a liquid scintillation counter. Radioactivity of a control in which 10 μl of distilled water was added instead of the standard heparin or inventive-substance was defined as 100% (FIG. 7). […]
Substance,LD50 (mice; intravenous injection),LD50 (mice; oral administration),LD50 (mice; subcutaneous or intraperitoneal administration),TT activity (blood plasma [1]) [%],TT activity/APTT activity (blood plasma [1]),anticoagulation activity [2] [IU/mg],Neurite outgrowth promoting activity [3] [%],APTT activity (blood plasma [4]) [%],APTT (3 μg/ml) (blood plasma [4]) [s],"cells rescued from cell death (NSC-34 cells; 100 μg/ml aqueous solution added, NSC-34 cells)","activity to inhibit cell death and rescue the cells (NSC-34 cells; 100 and 1,000 μg/ml aqueous solution added, NSC-34 cells, 48 hours, MTT)",neurite outgrowth promoting activity in the survived cells (NSC-34 cells; survived NSC-34 cells),"neurite outgrowth promoting activity (in words, FIG. 3) [3]","sialidase inhibition activity compared with standard heparin ([5]; 10 μl of 10 μg/ml aqueous solution, 37° C., 1 hour (FIG. 7))","sialidase inhibition activity compared with NeuAc2en ([5]; 10 μl of 10, 100 or 1,000 μg/ml aqueous solution (FIG. 8))"
heparin,"about 1,000 mg/kg","≥ 5,000 mg/kg","≥ 2,500 mg/kg",–,–,–,–,–,–,–,–,–,–,–,–
"heparin sodium salt [Standard heparin, reference compound]",–,–,–,100,1,160,15.0,100,248,–,–,–,–,–,–
selectively 2-O-desulfated periodic acid oxidation-reduction heparin [Inventive substance],–,–,–,0.37,0.185,–,29.7,2,32,about half the number of cells is rescued from cell death,markedly inhibit cell death,neurite outgrowth promoting activity was observed,sharp increase in the neurite outgrowth promoting activity,stronger activity to inhibit sialidase which degrades ganglioside than the standard heparin,stronger sialidase inhibition activity than that of NeuAc2en
